In paper PMC3064226 (The Journal of Biological Chemistry, 2011) one finds Km data, which are given here for 1 molecule.

SMILES strings stand for the structures.

In this experiment the target is T1, PfnPrx (His6-nPrx1-164) (Plasmodium falciparum, UniProt Q8IJD0).
T1 sequence (Q8IJD0 1-164): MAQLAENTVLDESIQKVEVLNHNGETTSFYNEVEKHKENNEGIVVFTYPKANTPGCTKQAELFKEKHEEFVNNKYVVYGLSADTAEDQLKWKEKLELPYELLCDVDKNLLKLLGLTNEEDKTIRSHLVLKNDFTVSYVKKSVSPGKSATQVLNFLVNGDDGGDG
Kind of experiment: NADPH oxidation at […] nm, coupled to glutathione reductase/GSH/PfGrx1. The experiment is classed as biochemical. The following applies: read-out: apparent Km; 10 μM PfGrx1, 1 mM GSH, 200 μM NADPH, 100 mM HEPES pH 7.6, 1 mM EDTA, 25 °C.

What is called Km is the concentration of substrate that gives half-maximal velocity. With `CC(C)(OO)c1ccccc1` [cumene hydroperoxide], the Km was approximately 30 µM.
